Assay results from US10005768B2, “Carboxamide derivatives and use thereof” (Purdue Pharma L.P., priority 2013, dated 2018).

biological target: T1, human Nav1.7 (Homo sapiens (Human), UniProt Q15858); assay: FLIPR sodium dye assay (CoroNa Green AM Na+ dye, primary fluorescence assay); assay type: cell-based; conditions: recombinant Nav1.7/HEK293 cells
In short: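 HEK293 cells stably expressing human Nav1.7 α subunit (no β/γ subunits), loaded with 5 μM CoroNa Green Na+ dye in HEPES-buffered Hanks-type saline, pH 7.3. Na+ influx stimulated by 100 μM veratridine plus 10 μg/mL Leiurus scorpion venom; compounds tested at 20 μM down to 0.001 μM (10 points, 0.2% DMSO).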

T1 sequence (Q15858 other isoform, or with tags, fused parts or gaps): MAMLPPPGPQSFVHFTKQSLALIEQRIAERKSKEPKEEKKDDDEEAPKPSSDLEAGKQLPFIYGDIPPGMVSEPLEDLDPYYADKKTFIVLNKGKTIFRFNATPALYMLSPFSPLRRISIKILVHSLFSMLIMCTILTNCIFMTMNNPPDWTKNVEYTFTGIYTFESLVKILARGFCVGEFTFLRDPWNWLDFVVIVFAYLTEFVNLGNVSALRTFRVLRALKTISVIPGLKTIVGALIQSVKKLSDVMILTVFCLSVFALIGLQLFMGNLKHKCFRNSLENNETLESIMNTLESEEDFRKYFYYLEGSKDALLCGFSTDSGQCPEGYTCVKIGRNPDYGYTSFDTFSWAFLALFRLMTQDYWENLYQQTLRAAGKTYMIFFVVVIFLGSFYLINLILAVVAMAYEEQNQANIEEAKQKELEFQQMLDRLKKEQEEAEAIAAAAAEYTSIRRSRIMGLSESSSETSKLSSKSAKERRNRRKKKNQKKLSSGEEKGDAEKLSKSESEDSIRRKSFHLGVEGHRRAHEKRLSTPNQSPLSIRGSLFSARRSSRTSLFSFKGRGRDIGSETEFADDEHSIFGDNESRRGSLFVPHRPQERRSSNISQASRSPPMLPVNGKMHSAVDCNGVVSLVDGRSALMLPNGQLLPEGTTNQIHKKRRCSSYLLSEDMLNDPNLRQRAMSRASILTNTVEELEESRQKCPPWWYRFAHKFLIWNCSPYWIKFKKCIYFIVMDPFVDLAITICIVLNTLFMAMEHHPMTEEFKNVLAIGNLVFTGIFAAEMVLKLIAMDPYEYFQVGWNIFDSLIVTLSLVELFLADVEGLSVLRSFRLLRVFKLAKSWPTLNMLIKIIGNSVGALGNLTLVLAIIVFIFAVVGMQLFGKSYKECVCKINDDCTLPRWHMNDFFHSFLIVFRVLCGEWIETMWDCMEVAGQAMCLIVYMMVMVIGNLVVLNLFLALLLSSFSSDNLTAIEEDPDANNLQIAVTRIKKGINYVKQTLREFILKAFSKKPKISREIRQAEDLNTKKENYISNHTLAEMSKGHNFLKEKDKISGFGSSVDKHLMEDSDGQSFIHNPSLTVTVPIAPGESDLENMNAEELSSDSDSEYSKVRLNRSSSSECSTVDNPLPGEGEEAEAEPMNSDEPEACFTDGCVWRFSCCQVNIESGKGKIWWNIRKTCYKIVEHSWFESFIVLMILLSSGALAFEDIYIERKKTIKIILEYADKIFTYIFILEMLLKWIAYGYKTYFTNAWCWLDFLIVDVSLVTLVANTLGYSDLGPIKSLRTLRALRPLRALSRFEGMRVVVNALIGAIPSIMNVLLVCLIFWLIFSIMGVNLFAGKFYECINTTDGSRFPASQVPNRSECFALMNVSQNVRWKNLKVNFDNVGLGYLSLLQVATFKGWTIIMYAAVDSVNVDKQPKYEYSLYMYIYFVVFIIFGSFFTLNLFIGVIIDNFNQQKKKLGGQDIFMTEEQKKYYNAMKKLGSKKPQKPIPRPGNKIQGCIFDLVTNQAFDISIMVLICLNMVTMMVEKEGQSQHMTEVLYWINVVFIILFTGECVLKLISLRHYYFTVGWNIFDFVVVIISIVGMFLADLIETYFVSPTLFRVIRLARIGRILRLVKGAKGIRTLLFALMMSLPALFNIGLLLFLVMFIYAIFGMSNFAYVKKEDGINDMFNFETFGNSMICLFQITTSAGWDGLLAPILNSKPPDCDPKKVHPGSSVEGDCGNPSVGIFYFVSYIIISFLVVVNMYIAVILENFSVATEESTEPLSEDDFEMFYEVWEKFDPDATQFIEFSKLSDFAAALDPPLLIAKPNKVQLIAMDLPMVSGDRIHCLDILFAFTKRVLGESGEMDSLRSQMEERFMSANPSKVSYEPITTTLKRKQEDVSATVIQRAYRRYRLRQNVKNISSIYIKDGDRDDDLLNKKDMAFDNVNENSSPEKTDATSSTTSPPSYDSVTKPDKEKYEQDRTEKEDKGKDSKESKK

IC50	SMILES
0.28 ± 0.009 µM	NC(=O)c1cccc(-c2ccc(Oc3ccc(C(F)(F)F)cc3CNC3CCCC3)cc2)n1 [compound 108, 6-(4-(2-((cyclopentylamino)-methyl)-4-(trifluoromethyl)-phenoxy)phenyl)picolinamide]
10 to 20 µM	CN(C)C(C(N)=O)c1cc(C(F)(F)F)ccc1Oc1ccc(-c2cccc(C(N)=O)n2)cc1 (centres unmarked) [compound 84, 6-(4-(2-(2-amino-1-(dimethylamino)-2-oxoethyl)-4-(trifluoromethyl)phenoxy)phenyl) picolinamide]
2.04 ± 0.06 µM	NC(=O)c1cccc(-c2ccc(Oc3ccc(C(F)(F)F)cc3CNC3CCNC3)cc2)n1 (centres unmarked) [compound 61, 6-(4-(2-((pyrrolidin-3-ylamino)methyl)-4-(trifluoromethyl)phenoxy)phenyl) picolinamide]
0.249 ± 0.016 µM	CCN(CC)S(=O)(=O)c1cc(C(F)(F)F)ccc1Oc1ccc(-c2cccc([C@H](O)CO)n2)cc1 [compound 113, (S)-2-(4-(6-(1,2-dihydroxyethyl)pyridin-2-yl)phenoxy)-N,N-diethyl-5-(trifluoromethyl)benzenesulfonamide]
0.672 ± 0.059 µM	O=C1CN(Cc2cc(C(F)(F)F)ccc2Oc2ccc(-c3cccc([C@H](O)CO)n3)cc2)CCN1 [compound 74, (S)-4-(2-(4-(6-(1,2-dihydroxyethyl)pyridin-2-yl)phenoxy)-5-(trifluoro-methyl)benzyl)piperazin-2-one]
> 20 µM	NC(=O)c1cccc(-c2ccc(Oc3cccc(CN4CCCC4)n3)cc2)n1 [compound 59, 6-(4-((6-(pyrrolidin-1-ylmethyl)pyridin-2-yl)oxy)phenyl)picolinamide]
1.77 ± 0.57 µM	NC(=O)c1cccc(-c2ccc(Oc3ccc(C(F)(F)F)cc3CNCCN3CCNC3=O)cc2)n1 [compound 34, 6-(4-(2-(((2-(2-oxoimidazolidin-1-yl)ethyl)amino)methyl)-4-(trifluoromethyl)phenoxy)phenyl) picolinamide]
> 20 µM	NC(=O)c1cccc(-c2ccc(Oc3ccc(C(F)(F)F)cc3C(=O)N3CCNC(=O)C3)cc2)n1 [compound 165, 6-(4-(2-(3-oxopiperazine-1-carbonyl)-4-(trifluoromethyl)-phenoxy)phenyl)picolinamide]
0.337 ± 0.006 µM	N#Cc1ccc(Oc2ccc(-c3cccc(C(N)=O)n3)cc2)c(-c2ccsc2)c1 [compound 19, 6-(4-(4-cyano-2-(thiophen-3-yl)phenoxy)phenyl)picolinamide]
0.049 ± 0.003 µM	NC(=O)c1cccc(-c2ccc(Oc3ccc(C(F)(F)F)cc3CN3CCCC3)cc2)n1 [compound 30, 6-(4-(2-(pyrrolidin-1-ylmethyl)-4-(trifluoromethyl)phenoxy)phenyl) picolinamide]
0.173 ± 0.033 µM	NC(=O)c1cccc(-c2ccc(Oc3ccc(C(F)(F)F)c(CN4CCCC4)c3)cc2)n1 [compound 56, 6-(4-(3-(pyrrolidin-1-ylmethyl)-4-(trifluoromethyl)phenoxy)phenyl) picolinamide]
1.33 ± 0.209 µM	CCN(CC)Cc1cc(-c2cccc(C(N)=O)n2)ccc1Oc1ccc(F)cc1 [compound 95, 6-(3-((diethylamino)methyl)-4-(4-fluorophenoxy)phenyl) picolinamide]
> 20 µM	N#Cc1cc(-c2cccc(C(N)=O)n2)ccc1Oc1ccc(F)cc1 [compound 89]
0.362 ± 0.095 µM	N#Cc1ccc(OCc2cc(-c3cccc(C(N)=O)n3)ccc2Oc2ccc(F)cc2)cc1 [compound 105, 6-(3-((4-cyanophenoxy)methyl)-4-(4-fluorophenoxy)phenyl)picolinamide]

SMILES	IC50
COC(=O)c1cccc(-c2ccc(Oc3ccc(C(F)(F)F)cc3C(O)C#N)cc2)n1 (centres unmarked) [compound 144, methyl 6-(4-(2-(cyano(hydroxy)methyl)-4-(trifluoromethyl)phenoxy)phenyl) picolinate]	3.79 ± 0.377 µM

biological target: T1, human Nav1.7; assay: FLIPR membrane potential dye assay (alternative fluorescence assay); assay type: cell-based; conditions: recombinant Nav1.7/HEK293 cells
Procedure: In vitro assays were performed in a recombinant cell line expressing cDNA encoding the alpha subunit (Nav1.7, SCN9a, PN1, NE) of human Nav1.7 (Accession No. NM_002977). The cell line was provided by investigators at Yale University (Cummins et al, J. Neurosci. 18(23): 9607-9619 (1998)). For dominant selection of the Nav1.7-expressing clones, the expression plasmid co-expressed the neomycin resistance gene. The cell line was constructed in the human embryonic kidney cell line, HEK293, under the influence of the CMV […] promoter, and stable clones were selected using limiting dilution cloning and antibiotic selection using the neomycin analogue, G418. Recombinant beta and gamma subunits were not introduced into this cell line. Additional cell lines expressing recombinant Nav1.7 cloned from other species can also be used, alone or in combination with various beta subunits, gamma subunits or chaperones.
A fluorescence indicator that can be used in alternative fluorescence assays is the blue version membrane potential dye (MDS, Molecular Devices, Sunnyvale, Calif.), a dye that detects changes in molecules following a change in membrane potential. An increase in fluorescence is expected if agonist stimulation provokes a change in membrane potential. Cells expressing Nav1.7 or other sodium channels are incubated with the membrane potential dye 30-60 minutes before the fluorescence assay. In the case of the KCl pre-stimulation version of the assay, the dye and all other components are washed out immediately before the assay, and the dye is then replaced. In the version lacking KCl pre-stimulation, the dye remains on the cells and is not washed out or replaced. The dye is stored in the dark as a lyophilized powder, and then an aliquot dissolved in assay buffer to form a 20×-concentrated stock solution that can be used for several weeks.
In the fluorescence assays, two agonists were used in combination, namely 1) veratridine; and 2) the venom from the yellow scorpion, Leiurus quinquestriatus hebraeus. Veratridine is an alkaloid small molecule that facilitates the capture of channel openings by inhibiting inactivation, and the scorpion venom is a natural preparation that includes peptide toxins selective for different subsets of voltage-gated sodium channels. These scorpion toxins inhibit the fast inactivation of their cognate target channels. Stock solutions of the agonists were prepared to 40 mM in DMSO (veratridine) and 1 mg/mL in dH2O (scorpion venom), and then diluted to make a 4× or 2× stock (depending on the particular assay) in assay buffer, the final concentration being 100 μM (veratridine) and 10 μg/mL (scorpion venom). Both of the agonists were purchased from Sigma Aldrich, St. Louis, Mo.
Test compounds were dissolved in DMSO to yield 10 mM stock solutions. The stock solutions were further diluted using DMSO in 1:3 serial dilution steps with 10 points (10,000 μM, […], 370 μM, 123 μM, 41 μM, 14 μM, 4.6 μM, 1.5 μM and 0.5 μM). The stock solutions were further diluted in assay buffer (1:125) as 4× stock serial dilutions with a DMSO concentration of 0.8% (final [DMSO], in the assay, from the compounds component=0.2%), so that the compounds' final concentrations in the assay were 20 μM, 6.7 μM, 2.2 μM, 0.74 μM, 0.25 μM and 0.08 μM, 0.03 μM, 0.01 μM, 0.003 μM and 0.001 μM. If a particular test article appeared to be especially potent, then the concentration curve was adjusted, e.g., to 10-fold lower concentrations, in order to perform the dose-response in a more relevant concentration range. Compound dilutions were added during the dye-loading and pre-stimulation step, and then again during the fluorescence assay, early in the kinetic read.
The data were analyzed according to methods known to those skilled in the art or using the GraphPad® Prism Program, version 4.0 or higher (available from GraphPad Software, San Diego, Calif.) to determine the IC50 value for the test article. […]

SMILES	IC50
CCN(CC)Cc1cc(C(F)(F)F)ccc1Oc1ccc(-c2nc(C(N)=O)cc([C@H](O)CO)n2)cc1 [compound 130, (S)-2-(4-(2-((diethylamino)methyl)-4-(trifluoromethyl)phenoxy)phenyl)-6-(1,2-dihydroxyethyl)pyrimidine-4-carboxamide]	1.28 ± 0.135 µM
Cn1nccc1-c1cc(C(F)(F)F)ccc1Oc1ccc(-c2cccc(C(N)=O)n2)cc1 [compound 123, 6-(4-(2-(1-methyl-1H-pyrazol-5-yl)-4-(trifluoromethyl)phenoxy)phenyl) picolinamide]	0.149 ± 0.056 µM
Cn1nccc1-c1cc(C(F)(F)F)ccc1Oc1ccc(-c2nc(C(N)=O)cc([C@H](O)CO)n2)cc1 [compound 122, (S)-6-(1,2-dihydroxyethyl)-2-(4-(2-(1-methyl-1H-pyrazol-5-yl)-4-(trifluoromethyl)phenoxy)phenyl) pyrimidine-4-carboxamide]	0.079 ± 0.015 µM

Now from value to compound:

IC50	SMILES
> 20 µM	NC(=O)c1cc(N[C@H]2CCNC2=O)nc(-c2ccc(Oc3ccc(Cl)cc3-c3ccnn3C3CNC3)cc2)n1 [compound 137, (S)-2-(4-(2-(1-(azetidin-3-yl)-1H-pyrazol-5-yl)-4-chlorophenoxy)phenyl)-6-((2-oxopyrrolidin-3-yl)amino)pyrimidine-4-carboxamide]
0.699 ± 0.045 µM	CCN(CC)Cc1cc(C(F)(F)F)ccc1Oc1ccc(-c2nc(C(N)=O)cc([C@@H](O)CO)n2)cc1 [compound 133, (R)-2-(4-(2-((diethylamino)methyl)-4-(trifluoromethyl)phenoxy)phenyl)-6-(1,2-dihydroxyethyl)pyrimidine-4-carboxamide]
1.31 ± 0.054 µM	O=C(Nc1nccs1)c1cc(C(F)(F)F)ccc1Oc1ccc(-c2cccc([C@H](O)CO)n2)cc1 [compound 175, (S)-2-(4-(6-(1,2-dihydroxyethyl)pyridin-2-yl)phenoxy)-N-(thiazol-2-yl)-5-(trifluoromethyl)benzamide]
3.61 ± 0.229 µM	O=C(Nc1nncs1)c1cc(C(F)(F)F)ccc1Oc1ccc(-c2cccc([C@H](O)CO)n2)cc1 [compound 174, (S)-2-(4-(6-(1,2-dihydroxyethyl)pyridin-2-yl)phenoxy)-N-(1,3,4-thiadiazol-2-yl)-5-(trifluoromethyl)-benzamide]
0.393 ± 0.048 µM	C[C@H](Nc1cc(C(N)=O)nc(-c2ccc(Oc3ccc(C(F)(F)F)cc3-c3cnc(N(C)C)cn3)cc2)n1)C(N)=O [compound 134, (S)-6-((1-amino-1-oxopropan-2-yl)amino)-2-(4-(2-(5-(dimethylamino)pyrazin-2-yl)-4-(trifluoromethyl)phenoxy)phenyl) pyrimidine-4-carboxamide]
0.6 ± 0.077 µM	C[C@H](Nc1cc(C(N)=O)nc(-c2ccc(Oc3ccc(C(F)(F)F)cc3-c3ccnn3C)cc2)n1)C(N)=O [compound 138, (S)-6-((1-amino-1-oxopropan-2-yl)amino)-2-(4-(2-(1-methyl-1H-pyrazol-5-yl)-4-(trifluoromethyl)phenoxy)phenyl) pyrimidine-4-carboxamide]
> 20 µM	NC(=O)c1cc([C@H](O)CO)cc(-c2ccc(Oc3ccc(Cl)cc3-c3ccnn3C3CNC3)cc2)n1 [compound 136, (S)-6-(4-(2-(1-(azetidin-3-yl)-1H-pyrazol-5-yl)-4-chlorophenoxy)phenyl)-4-(1,2-dihydroxyethyl)picolinamide]
4.23 ± 0.479 µM	C[C@H](Nc1cc(C(N)=O)nc(-c2ccc(Oc3ccccc3-c3ccnn3C)cc2)n1)C(N)=O [compound 140, (S)-6-((1-amino-1-oxopropan-2-yl)amino)-2-(4-(2-(1-methyl-1H-pyrazol-5-yl)phenoxy)phenyl)-pyrimidine-4-carboxamide]
